Experiments:
SOS = experiment: Guanine nucleotide-exchange factor assay (mantdGDP fluorescence); assay type: biochemical; details: 5 µM KRas1-169, 10 µM mantdGDP, 0.25 or 0.5 µM SOS
Description: SOS-catalysed nucleotide exchange was monitored at 25 °C in a FluoroMax-3 spectrofluorometer (excitation at 360 nm, emission at 440 nm) in 20 mM HEPES (pH 7.5), 100 mM NaCl, 2 mM MgCl2, and 1 mM TCEP. 5 µM KRas1-169 was mixed with 10 µM mantdGDP and subsequently with different concentrations of SOS (0.25 µM and 0.5 µM) (Figure 3A; Figure 3—figure supplement 1).

[1] = system: Ras pathway (pcRaf, pAkt, pErk, pS6); experiment: Electroporation into HeLa cells, western blot of downstream signalling; assay type: cell-based, human; details: electroporation of 50-300 µg protein
Description: (§1) HeLa cells were obtained from the American Type Culture Collection (ATCC) and were cultured in DMEM medium (Gibco) supplemented with 10% fetal bovine serum (FBS) (PAN-Biotech) and 1% penicillin/streptomycin (Gibco). Cells were cultured in a humidified incubator at 37 °C in the presence of 5% CO2. The identity of the cells was validated by STR profiling and the cells were tested negative for mycoplasma contamination.
(§2) Electroporation of full-length KRas constructs (KRasWT, KRasG13C, KRasG13C-edaGDP, KRasG13C:acetyledaGDP and KRasG13C-edaGppCp) was performed based on the protocol described by [Alex et al., 2019] using the Neon Transfection System Kit (Thermo Fisher). For electroporation, 3 million cells per experiment were harvested by trypsinization, washed with PBS, and resuspended in 85 µL of the electroporation buffer R (Thermo Fisher). Increasing amounts of recombinant protein samples for each construct (0, 50, 100, 200 and 300 µg) were diluted 1:1 in buffer R followed by the addition of 30 µL of this protein master mix to the cell suspension. This cellular slurry was loaded into a […] Neon Pipette Tip (Thermo Fisher) and electroporated with 2x35 ms pulses at 1000 V. After electroporation, the cells were washed twice with PBS (15 mL) to remove non-internalized extracellular protein and the cell pellet was resuspended in 2 mL complete growth media. Cells were transferred into six-well tissue culture plates (Sarstedt) and incubated for 24 hr at 37 °C and 5% CO2 in a humidified incubator for recovery before being processed for western blotting analysis.
After recovery of the electroporation, cells were washed twice with ice-cold PBS and lysed in 100 µL of phosphatase and protease inhibitor containing RIPA buffer (Cell Signaling Technology). Cells were incubated on ice for 30 min and then harvested by scraping followed by centrifugation at 14,000 rpm for 10 min at 4 °C. Protein concentrations were determined using the Pierce BCA protein assay (Thermo) following the manufacturer’s recommended procedure. Equal amounts of protein (10 µg) were analyzed by SDS-PAGE and transferred to Immobilon-FL PVDF membranes (Merck Millipore) using Pierce 1-step transfer buffer (Thermo) and the Pierce Power Blotter (Thermo). Membranes were washed with ddH2O for 5 min, blocked with OdysseyBlocking Buffer TBS (Li-Cor) for 1 hr at room temperature and then incubated with primary antibodies diluted in OdysseyBlocking Buffer TBS overnight at 4 °C with gentle agitation. […] Quantification of protein levels from western blots was performed using Empiria Studio (Li-Cor) (Figure 3B, C, Figure 3—figure supplements 6–9).

pAktS473 = experiment: Electroporation into HeLa cells, western blot quantification; assay type: cell-based, human; details: for pAkt mean fold change: mean of cell lysates
Description: as §1, §2
(§3) After recovery of the electroporation, cells were washed twice with ice-cold PBS and lysed in 100 µL of phosphatase and protease inhibitor containing RIPA buffer (Cell Signaling Technology). Cells were incubated on ice for 30 min and then harvested by scraping followed by centrifugation at 14,000 rpm for 10 min at 4 °C. Protein concentrations were determined using the Pierce BCA protein assay (Thermo) following the manufacturer’s recommended procedure. Equal amounts of protein (10 µg) were analyzed by SDS-PAGE and transferred to Immobilon-FL PVDF membranes (Merck Millipore) using Pierce 1-step transfer buffer (Thermo) and the Pierce Power Blotter (Thermo). Membranes were washed with ddH2O for 5 min, blocked with OdysseyBlocking Buffer TBS (Li-Cor) for 1 hr at room temperature and then incubated with primary antibodies diluted in OdysseyBlocking Buffer TBS overnight at 4 °C with gentle agitation. KRas (Sigma Aldrich, SAB1404011-100UG), pcRafS338 (CST, 9427), tAkt1 (CST, 2938), pAktS473 (CST, 4060), tErk (CST, 4696), pErkT202/Y204 (CST, 4370), pS6S235/236 (CST, 4858), and β-actin (CST, 4970/Sigma-Aldrich, A5441) antibodies were used to detect the individual proteins. After primary antibody incubation, membranes were washed three times with TBS-T (50 mM Tris, 150 mM NaCl, 0.05% Tween 20, pH 7.4) for 5 min before being incubated with secondary antibodies (anti-mouse IgG (H+L) (DyLight 680 Conjugate) (CST, 5470) / anti-rabbit IgG (H+L) (DyLight 800 4 X PEG Conjugate) (CST, 5151)) diluted in OdysseyBlocking Buffer TBS for 1 hr at room temperature with gentle agitation. After secondary antibody incubation, the membranes were washed three times for 5 min with TBS-T and then scanned using an OdysseyCLx imaging system (Li-Cor). Quantification of protein levels from western blots was performed using Empiria Studio (Li-Cor) (Figure 3B, C, Figure 3—figure supplements 6–9).

pErkT202/Y204 = experiment: as above; assay type: cell-based, human; details: for pErk mean fold change: mean of cell lysates
Description: as §1, §2, §3

pS6S235/236 = experiment: as above; assay type: cell-based, human; details: for pS6 mean fold change: mean of cell lysates
Description: as §1, §2, §3

pcRafS338 = experiment: as above; assay type: cell-based, human; details: for pcRaf mean fold change: mean of cell lysates
Description: as §1, §2, §3

tAkt1 = experiment: as above; assay type: cell-based, human; details: for tAkt mean fold change: mean of cell lysates
Description: as §1, §2, §3

tErk = experiment: as above; assay type: cell-based, human; details: for tErk mean fold change: mean of cell lysates
Description: as §1, §2, §3

KRasG13C-edaGppCp: KRasG13C covalently modified with edaGppCp
SOS-catalysed nucleotide exchange (SOS): no SOS-catalysed nucleotide exchange was observed
downstream signalling (pcRaf, pAkt, pErk, pS6) [1]: activation of the Ras pathway comparable to KRasG13C was observed
pAkt fold change (pAktS473; 50 µg, Cell lysate 1): 2.11
pAkt fold change (pAktS473; 50 µg, Cell lysate 2): 3.13
pAkt mean fold change (pAktS473; 50 µg): 2.62
pAkt fold change (pAktS473; 100 µg, Cell lysate 1): 4.88
pAkt fold change (pAktS473; 100 µg, Cell lysate 2): 6.30
pAkt mean fold change (pAktS473; 100 µg): 5.59
pAkt fold change (pAktS473; 200 µg, Cell lysate 1): 6.55
pAkt fold change (pAktS473; 200 µg, Cell lysate 2): 7.78
pAkt mean fold change (pAktS473; 200 µg): 7.17
pAkt fold change (pAktS473; 300 µg, Cell lysate 1): 6.53
pAkt fold change (pAktS473; 300 µg, Cell lysate 2): 5.20
pAkt mean fold change (pAktS473; 300 µg): 5.87
pErk fold change (pErkT202/Y204; 50 µg, Cell lysate 1): 4.72
pErk fold change (pErkT202/Y204; 50 µg, Cell lysate 2): 5.16
pErk mean fold change (pErkT202/Y204; 50 µg): 4.94
pErk fold change (pErkT202/Y204; 100 µg, Cell lysate 1): 7.88
pErk fold change (pErkT202/Y204; 100 µg, Cell lysate 2): 4.30
pErk mean fold change (pErkT202/Y204; 100 µg): 6.09
pErk fold change (pErkT202/Y204; 200 µg, Cell lysate 1): 7.25
pErk fold change (pErkT202/Y204; 200 µg, Cell lysate 2): 5.27
pErk mean fold change (pErkT202/Y204; 200 µg): 6.26
pErk fold change (pErkT202/Y204; 300 µg, Cell lysate 1): 7.62
pErk fold change (pErkT202/Y204; 300 µg, Cell lysate 2): 5.84
pErk mean fold change (pErkT202/Y204; 300 µg): 6.73
pS6 fold change (pS6S235/236; 50 µg, Cell lysate 1): 4.20
pS6 fold change (pS6S235/236; 50 µg, Cell lysate 2): 2.51
pS6 mean fold change (pS6S235/236; 50 µg): 3.36
pS6 fold change (pS6S235/236; 100 µg, Cell lysate 1): 2.82
pS6 fold change (pS6S235/236; 100 µg, Cell lysate 2): 2.81
pS6 mean fold change (pS6S235/236; 100 µg): 2.82
pS6 fold change (pS6S235/236; 200 µg, Cell lysate 1): 3.15
pS6 fold change (pS6S235/236; 200 µg, Cell lysate 2): 3.28
pS6 mean fold change (pS6S235/236; 200 µg): 3.22
pS6 fold change (pS6S235/236; 300 µg, Cell lysate 1): 3.41
pS6 fold change (pS6S235/236; 300 µg, Cell lysate 2): 3.61
pS6 mean fold change (pS6S235/236; 300 µg): 3.51
pcRaf fold change (pcRafS338; 50 µg, Cell lysate 1): 2.67
pcRaf fold change (pcRafS338; 50 µg, Cell lysate 2): 1.69
pcRaf mean fold change (pcRafS338; 50 µg): 2.18
pcRaf fold change (pcRafS338; 100 µg, Cell lysate 1): 2.60
pcRaf fold change (pcRafS338; 100 µg, Cell lysate 2): 2.10
pcRaf mean fold change (pcRafS338; 100 µg): 2.35
pcRaf fold change (pcRafS338; 200 µg, Cell lysate 1): 2.93
pcRaf fold change (pcRafS338; 200 µg, Cell lysate 2): 3.37
pcRaf mean fold change (pcRafS338; 200 µg): 3.15
pcRaf fold change (pcRafS338; 300 µg, Cell lysate 1): 3.66
pcRaf fold change (pcRafS338; 300 µg, Cell lysate 2): 3.19
pcRaf mean fold change (pcRafS338; 300 µg): 3.43
tAkt fold change (tAkt1; 50 µg, Cell lysate 1): 1.35
tAkt fold change (tAkt1; 50 µg, Cell lysate 2): 1.53
tAkt mean fold change (tAkt1; 50 µg): 1.44
tAkt fold change (tAkt1; 100 µg, Cell lysate 1): 1.30
tAkt fold change (tAkt1; 100 µg, Cell lysate 2): 1.69
tAkt mean fold change (tAkt1; 100 µg): 1.50
tAkt fold change (tAkt1; 200 µg, Cell lysate 1): 1.09
tAkt fold change (tAkt1; 200 µg, Cell lysate 2): 1.67
tAkt mean fold change (tAkt1; 200 µg): 1.38
tAkt fold change (tAkt1; 300 µg, Cell lysate 1): 0.94
tAkt fold change (tAkt1; 300 µg, Cell lysate 2): 1.47
tAkt mean fold change (tAkt1; 300 µg): 1.20
tErk fold change (tErk; 50 µg, Cell lysate 1): 1.12
tErk fold change (tErk; 50 µg, Cell lysate 2): 1.11
tErk mean fold change (tErk; 50 µg): 1.12
tErk fold change (tErk; 100 µg, Cell lysate 1): 1.29
tErk fold change (tErk; 100 µg, Cell lysate 2): 1.14
tErk mean fold change (tErk; 100 µg): 1.21
tErk fold change (tErk; 200 µg, Cell lysate 1): 1.21
tErk fold change (tErk; 200 µg, Cell lysate 2): 1.17
tErk mean fold change (tErk; 200 µg): 1.19
tErk fold change (tErk; 300 µg, Cell lysate 1): 1.69
tErk fold change (tErk; 300 µg, Cell lysate 2): 1.50
tErk mean fold change (tErk; 300 µg): 1.60

— PMC10042540, “Targeting oncogenic KRasG13C with nucleotide-based covalent inhibitors” (eLife, 2023)
